Measurements taken from the supplement of paper PMC13380429.

What was measured:
Conditions in all cases: 72 h
HepG2 [1] = assay: cell viability relative to DMSO; higher = less toxic
Calu-3 [2] = assay: as above
Vero E6 [3] = assay: as above
HepG2 [4] = assay: drug sensitivity score (DSS) for viability; higher = more toxic; extreme values may be limits of the assay
Calu-3 [5] = assay: as above
Vero E6 [6] = assay: as above
HepG2 [7] = assay: relative viability EC50 (midpoint between 100% and the lowest measured viability); higher = less toxic
Calu-3 [8] = assay: as above
Vero E6 [9] = assay: as above
Caco-2 [10] = assay: cell viability relative to DMSO; higher = less toxic
U2OS [11] = assay: as above
Caco-2 [12] = assay: drug sensitivity score (DSS) for viability; higher = more toxic; extreme values may be limits of the assay
U2OS [13] = assay: as above
U2OS [14] = assay: relative viability EC50 (midpoint between 100% and the lowest measured viability); higher = less toxic

SMILES: CNC(=O)[C@H]1O[C@@H](n2cnc3c(NCc4cccc(I)c4)nc(Cl)nc32)[C@H](O)[C@@H]1O [CF102]
- cell viability (HepG2 [1]; 1 nM): 100%
- cell viability (HepG2 [1]; 10 nM): 102%
- cell viability (HepG2 [1]; 100 nM): 108%
- cell viability (HepG2 [1]; 1000 nM): 106%
- cell viability (HepG2 [1]; 10000 nM): 99.3%
- cell viability (Calu-3 [2]; 1 nM): 99.1%
- cell viability (Calu-3 [2]; 10 nM): 116%
- cell viability (Calu-3 [2]; 100 nM): 93.2%
- cell viability (Calu-3 [2]; 1000 nM): 102%
- cell viability (Calu-3 [2]; 10000 nM): 98.3%
- cell viability (Vero E6 [3]; 1 nM): 110%
- cell viability (Vero E6 [3]; 10 nM): 99.5%
- cell viability (Vero E6 [3]; 100 nM): 104%
- cell viability (Vero E6 [3]; 1000 nM): 98.3%
- cell viability (Vero E6 [3]; 10000 nM): 102%
- drug sensitivity score (HepG2 [4]): 0
- drug sensitivity score (Calu-3 [5]): 0
- drug sensitivity score (Vero E6 [6]): 0
- relative viability EC50 (HepG2 [7]): > 10 µM
- relative viability EC50 (Calu-3 [8]): > 10 µM
- relative viability EC50 (Vero E6 [9]): > 10 µM

SMILES: COc1cc(/C=C2\CCCN([C@@H](C)c3ccc(F)cc3)C2=O)ccc1-n1cnc(C)c1 [E-2012]
- cell viability (HepG2 [1]; 1 nM): 109%
- cell viability (HepG2 [1]; 10 nM): 97.5%
- cell viability (HepG2 [1]; 100 nM): 100%
- cell viability (HepG2 [1]; 1000 nM): 99%
- cell viability (HepG2 [1]; 10000 nM): 60.1%
- cell viability (Calu-3 [2]; 1 nM): 102%
- cell viability (Calu-3 [2]; 10 nM): 99.2%
- cell viability (Calu-3 [2]; 100 nM): 106%
- cell viability (Calu-3 [2]; 1000 nM): 104%
- cell viability (Calu-3 [2]; 10000 nM): 114%
- cell viability (Vero E6 [3]; 1 nM): 93.1%
- cell viability (Vero E6 [3]; 10 nM): 104%
- cell viability (Vero E6 [3]; 100 nM): 98.7%
- cell viability (Vero E6 [3]; 1000 nM): 98.8%
- cell viability (Vero E6 [3]; 10000 nM): 106%
- cell viability (Caco-2 [10]; 1 nM): 106%
- cell viability (Caco-2 [10]; 10 nM): 101%
- cell viability (Caco-2 [10]; 100 nM): 94.9%
- cell viability (Caco-2 [10]; 1000 nM): 98.8%
- cell viability (Caco-2 [10]; 10000 nM): 72.6%
- cell viability (U2OS [11]; 1 nM): 103%
- cell viability (U2OS [11]; 10 nM): 97.7%
- cell viability (U2OS [11]; 100 nM): 101%
- cell viability (U2OS [11]; 1000 nM): 104%
- cell viability (U2OS [11]; 10000 nM): 97.4%
- drug sensitivity score (HepG2 [4]): 2.1
- drug sensitivity score (Calu-3 [5]): 0
- drug sensitivity score (Vero E6 [6]): 0
- drug sensitivity score (Caco-2 [12]): 1.3
- drug sensitivity score (U2OS [13]): 0
- relative viability EC50 (Calu-3 [8]): > 10 µM
- relative viability EC50 (Vero E6 [9]): > 10 µM
- relative viability EC50 (U2OS [14]): > 10 µM

SMILES: O=C1[C@H](Cc2ccc(O)cc2)N2C(=O)CCN(C(=O)NCc3ccccc3)[C@H]2CN1Cc1cccc2ccccc12 [ICG-001]
- cell viability (HepG2 [1]; 1 nM): 102%
- cell viability (HepG2 [1]; 10 nM): 105%
- cell viability (HepG2 [1]; 100 nM): 110%
- cell viability (HepG2 [1]; 1000 nM): 105%
- cell viability (HepG2 [1]; 10000 nM): 43.5%
- cell viability (Calu-3 [2]; 1 nM): 97.4%
- cell viability (Calu-3 [2]; 10 nM): 106%
- cell viability (Calu-3 [2]; 100 nM): 97.1%
- cell viability (Calu-3 [2]; 1000 nM): 100%
- cell viability (Calu-3 [2]; 10000 nM): 53.1%
- cell viability (Vero E6 [3]; 1 nM): 90%
- cell viability (Vero E6 [3]; 10 nM): 99.2%
- cell viability (Vero E6 [3]; 100 nM): 91.3%
- cell viability (Vero E6 [3]; 1000 nM): 97.2%
- cell viability (Vero E6 [3]; 10000 nM): 106%
- cell viability (Caco-2 [10]; 1 nM): 91.5%
- cell viability (Caco-2 [10]; 10 nM): 94.2%
- cell viability (Caco-2 [10]; 100 nM): 99.7%
- cell viability (Caco-2 [10]; 1000 nM): 91%
- cell viability (Caco-2 [10]; 10000 nM): 68.8%
- drug sensitivity score (HepG2 [4]): 2.7
- drug sensitivity score (Calu-3 [5]): 2.4
- drug sensitivity score (Vero E6 [6]): 0
- drug sensitivity score (Caco-2 [12]): 2.7
- relative viability EC50 (HepG2 [7]): 3.6 µM
- relative viability EC50 (Vero E6 [9]): > 10 µM

SMILES: Cc1sc2c(c1C)C(c1ccc(Cl)cc1)=N[C@@H](CC(=O)OC(C)(C)C)c1nnc(C)n1-2 [JQ1-(+)]
- drug sensitivity score (HepG2 [4]): 10
- drug sensitivity score (Calu-3 [5]): 6
- drug sensitivity score (Vero E6 [6]): 17.3
- drug sensitivity score (U2OS [13]): 9.2

SMILES: Cc1csc2c(N[C@@H](C)CN3CCN(S(=O)(=O)c4ccc(Cl)c(Cl)c4)CC3)ncnc12 [LPA2-antagonist-1]
- cell viability (HepG2 [1]; 1 nM): 106%
- cell viability (HepG2 [1]; 10 nM): 97.9%
- cell viability (HepG2 [1]; 100 nM): 93.2%
- cell viability (HepG2 [1]; 1000 nM): 36.6%
- cell viability (HepG2 [1]; 10000 nM): 18.6%
- cell viability (Calu-3 [2]; 1 nM): 90.5%
- cell viability (Calu-3 [2]; 10 nM): 104%
- cell viability (Calu-3 [2]; 100 nM): 96.9%
- cell viability (Calu-3 [2]; 1000 nM): 103%
- cell viability (Calu-3 [2]; 10000 nM): 93.6%
- cell viability (Vero E6 [3]; 1 nM): 95.2%
- cell viability (Vero E6 [3]; 10 nM): 97.1%
- cell viability (Vero E6 [3]; 100 nM): 102%
- cell viability (Vero E6 [3]; 1000 nM): 93.2%
- cell viability (Vero E6 [3]; 10000 nM): 82.5%
- cell viability (Caco-2 [10]; 1 nM): 96.3%
- cell viability (Caco-2 [10]; 10 nM): 107%
- cell viability (Caco-2 [10]; 100 nM): 95.3%
- cell viability (Caco-2 [10]; 1000 nM): 80.9%
- cell viability (Caco-2 [10]; 10000 nM): 64.4%
- cell viability (U2OS [11]; 1 nM): 97.6%
- cell viability (U2OS [11]; 10 nM): 101%
- cell viability (U2OS [11]; 100 nM): 97.4%
- cell viability (U2OS [11]; 1000 nM): 97%
- cell viability (U2OS [11]; 10000 nM): 58.7%
- drug sensitivity score (HepG2 [4]): 12.8
- drug sensitivity score (Calu-3 [5]): 0
- drug sensitivity score (Vero E6 [6]): 1.1
- drug sensitivity score (Caco-2 [12]): 3.7
- drug sensitivity score (U2OS [13]): 2.5
- relative viability EC50 (HepG2 [7]): 0.451 µM
- relative viability EC50 (Calu-3 [8]): > 10 µM
- relative viability EC50 (Vero E6 [9]): > 10 µM

SMILES: COc1ccc(CNC(=O)c2cc(-c3cncc(C)c3)ncc2-c2nccs2)nc1OC [MK-3697]
- cell viability (HepG2 [1]; 1 nM): 99.8%
- cell viability (HepG2 [1]; 10 nM): 91.2%
- cell viability (HepG2 [1]; 100 nM): 94.9%
- cell viability (HepG2 [1]; 1000 nM): 98.5%
- cell viability (HepG2 [1]; 10000 nM): 105%
- cell viability (Calu-3 [2]; 1 nM): 89%
- cell viability (Calu-3 [2]; 10 nM): 101%
- cell viability (Calu-3 [2]; 100 nM): 83.4%
- cell viability (Calu-3 [2]; 1000 nM): 92.5%
- cell viability (Calu-3 [2]; 10000 nM): 99.9%
- cell viability (Vero E6 [3]; 1 nM): 103%
- cell viability (Vero E6 [3]; 10 nM): 104%
- cell viability (Vero E6 [3]; 100 nM): 109%
- cell viability (Vero E6 [3]; 1000 nM): 111%
- cell viability (Vero E6 [3]; 10000 nM): 92.7%
- cell viability (U2OS [11]; 1 nM): 97.4%
- cell viability (U2OS [11]; 10 nM): 103%
- cell viability (U2OS [11]; 100 nM): 94.7%
- cell viability (U2OS [11]; 1000 nM): 99.3%
- cell viability (U2OS [11]; 10000 nM): 99.1%
- drug sensitivity score (HepG2 [4]): 0
- drug sensitivity score (Calu-3 [5]): 0
- drug sensitivity score (Vero E6 [6]): 0
- drug sensitivity score (U2OS [13]): 0
- relative viability EC50 (HepG2 [7]): > 10 µM
- relative viability EC50 (Calu-3 [8]): > 10 µM
- relative viability EC50 (Vero E6 [9]): > 10 µM
- relative viability EC50 (U2OS [14]): > 10 µM

SMILES: O=C(O)[C@]1(Cc2cccc(Nc3nccs3)n2)CC[C@@H](Oc2cccc(Cl)c2F)CC1 [MK-5108]
- cell viability (HepG2 [1]; 1 nM): 111%
- cell viability (HepG2 [1]; 10 nM): 106%
- cell viability (HepG2 [1]; 100 nM): 99.3%
- cell viability (HepG2 [1]; 1000 nM): 62.2%
- cell viability (HepG2 [1]; 10000 nM): 40.2%
- cell viability (Calu-3 [2]; 1 nM): 98.6%
- cell viability (Calu-3 [2]; 10 nM): 90.3%
- cell viability (Calu-3 [2]; 100 nM): 89.1%
- cell viability (Calu-3 [2]; 1000 nM): 88%
- cell viability (Calu-3 [2]; 10000 nM): 76.8%
- cell viability (Vero E6 [3]; 1 nM): 97.3%
- cell viability (Vero E6 [3]; 10 nM): 100%
- cell viability (Vero E6 [3]; 100 nM): 100%
- cell viability (Vero E6 [3]; 1000 nM): 94.6%
- cell viability (Vero E6 [3]; 10000 nM): 79.5%
- cell viability (Caco-2 [10]; 1 nM): 95.6%
- cell viability (Caco-2 [10]; 10 nM): 100%
- cell viability (Caco-2 [10]; 100 nM): 90.2%
- cell viability (Caco-2 [10]; 1000 nM): 76.2%
- cell viability (Caco-2 [10]; 10000 nM): 70.7%
- cell viability (U2OS [11]; 1 nM): 97.9%
- cell viability (U2OS [11]; 10 nM): 100%
- cell viability (U2OS [11]; 100 nM): 94.5%
- cell viability (U2OS [11]; 1000 nM): 95.1%
- cell viability (U2OS [11]; 10000 nM): 73.3%
- drug sensitivity score (HepG2 [4]): 7.8
- drug sensitivity score (Calu-3 [5]): 2.4
- drug sensitivity score (Vero E6 [6]): 1.3
- drug sensitivity score (Caco-2 [12]): 4.6
- drug sensitivity score (U2OS [13]): 1.8
- relative viability EC50 (HepG2 [7]): 0.787 µM
- relative viability EC50 (Calu-3 [8]): > 10 µM
- relative viability EC50 (Vero E6 [9]): > 10 µM

SMILES: O=C(Nc1ccc(OC(F)(F)F)cc1)c1sccc1NCc1ccnc2ccccc12 [OSI-930]
- cell viability (HepG2 [1]; 1 nM): 103%
- cell viability (HepG2 [1]; 10 nM): 98.5%
- cell viability (HepG2 [1]; 100 nM): 91.3%
- cell viability (HepG2 [1]; 1000 nM): 89%
- cell viability (HepG2 [1]; 10000 nM): 67%
- cell viability (Calu-3 [2]; 1 nM): 91.6%
- cell viability (Calu-3 [2]; 10 nM): 111%
- cell viability (Calu-3 [2]; 100 nM): 93.6%
- cell viability (Calu-3 [2]; 1000 nM): 112%
- cell viability (Calu-3 [2]; 10000 nM): 78%
- cell viability (Caco-2 [10]; 1 nM): 107%
- cell viability (Caco-2 [10]; 10 nM): 102%
- cell viability (Caco-2 [10]; 100 nM): 94.1%
- cell viability (Caco-2 [10]; 1000 nM): 97.9%
- cell viability (Caco-2 [10]; 10000 nM): 69.3%
- cell viability (U2OS [11]; 1 nM): 97.8%
- cell viability (U2OS [11]; 10 nM): 101%
- cell viability (U2OS [11]; 100 nM): 99.8%
- cell viability (U2OS [11]; 1000 nM): 104%
- cell viability (U2OS [11]; 10000 nM): 92.2%
- drug sensitivity score (HepG2 [4]): 2.5
- drug sensitivity score (Calu-3 [5]): 0.4
- drug sensitivity score (Caco-2 [12]): 1.7
- drug sensitivity score (U2OS [13]): 0
- relative viability EC50 (Calu-3 [8]): > 10 µM
- relative viability EC50 (U2OS [14]): > 10 µM
